# Experimental data published in ChEMBL document CHEMBL5518155, “Recent advances on dual inhibitors targeting HIV reverse transcriptase associated polymerase and ribonuclease H” (Eur J Med Chem, 2023).
# Columns and labels:
# [1] = target: T1, Human immunodeficiency virus type 1 reverse transcriptase (Human immunodeficiency virus 1, UniProt Q72547); experiment: Inhibition of N-terminal 6-his-tagged HIV-1 reverse transcriptase RNase H (427 to 560 residues) transfected in Escherichia coli BL21 (DE3)
# [2] = target: T1, Human immunodeficiency virus type 1 reverse transcriptase; experiment: Inhibition of HIV-1 reverse transcriptase associated RNA-dependent DNA polymerase
# [3] = Inhibition of HIV-1 RNA-dependent […]; parameters: species or system Human immunodeficiency virus 1
# [4] = Cytotoxicity against african green monkey Vero E6 cells incubated for 24 hrs by Cell-titer 96 cell proliferation assay; format: toxicity, cell-based, Vero C1008; details: chlorocebus sabaeus
# [5] = tested on: Human immunodeficiency virus 1; experiment: Antiviral activity against HIV1; format: functional, organism-based
# [6] = Inhibition of DNA polymerase (unknown origin); parameters: species or system Homo sapiens
# [7] = target: T1, Human immunodeficiency virus type 1 reverse transcriptase; experiment: Inhibition of HIV-1 RNase H
# [8] = target: T1, Human immunodeficiency virus type 1 reverse transcriptase; experiment: Inhibition of HIV-1 RNase H polymerase activity
# [9] = tested on: Human immunodeficiency virus 1; experiment: Antiviral activity against wild type HIV-1 IIIB infected in human MT4 cells assessed as protection against virus-induced cytopathic effect incubated for 5 days by MTT assay; format: functional, organism-based; details: Human immunodeficiency virus 1, IIIB, MT4, 120 h
# TZM = experiment: Cytotoxicity against human TZM-bl cells assessed as reduction in viability incubated for 48 hrs by MTT assay; format: functional
# [10] = target: T1, Human immunodeficiency virus type 1 reverse transcriptase; experiment: Inhibition of recombinant HIV-1 reverse transcriptase associated RNase H expressed in Escherichia coli BL21 (DE3) using 5-GTTTTCTTTTCCCCCCTGAC-3 Fluorescein/5CAAAAGAAAAGGGGGGACUG-3-Dabcyl as substrate incubated for 1 hr by multilabel counter plate reader method
# Hepatitis B virus [11] = experiment: Antiviral activity against HBV infected in AML12HBV10 cells assessed as reduction viral replication incubated for 48 hrs; format: functional, organism-based; details: AML12HBV10, 48 h
# Human alphaherpesvirus 1 [12] = experiment: Antiviral activity against HSV-1 infected in African green monkey Vero cells by plaque reduction assay; format: functional, organism-based; details: Human alphaherpesvirus 1, Vero
# Human alphaherpesvirus 2 = experiment: Antiviral activity against HSV-2 infected in African green monkey Vero cells assessed as reduction in virus induced cytopathogenicity by plaque reduction assay; format: functional, organism-based; details: Human alphaherpesvirus 2, Vero
# Human alphaherpesvirus 1 [13] = experiment: Antiviral activity against HSV-1 KOS infected in African green monkey Vero cells assessed as reduction in virus induced cytopathogenicity by plaque reduction assay; format: functional, organism-based; details: Human alphaherpesvirus 1, KOS
# [14] = tested on: Human immunodeficiency virus 1; experiment: Antiviral activity against HIV-1 harboring reverse transcriptase […] mutant infected in human MT4 cells assessed as reduction in virus-induced cytopathic effect; format: functional, organism-based; details: Human immunodeficiency virus 1, MT4
# [15] = Cytotoxicity against HEK-293T cells assessed as reduction in cell growth measured for 72 hrs by MTT assay; format: toxicity, cell-based; details: human
# [16] = target: T1, Human immunodeficiency virus type 1 reverse transcriptase; experiment: Inhibition of recombinant HIV-1 reverse transcriptase associated RNA-dependent DNA polymerase activity incubated for 30 mins by liquid scintillation method
# [17] = tested on: Human immunodeficiency virus 1; experiment: Antiviral activity against HIV-1 harboring L100I mutant infected in human MT4 cells assessed as virus-induced cytopathicity treated for 5 days by MTT assay; format: functional, organism-based; details: Human immunodeficiency virus 1, MT4, 120 h
# Hepatitis B virus [18] = experiment: Antiviral activity against HBV infected in human HepDES19 cells assessed as reduction in cccDNA accumulation by southern blot analysis; format: functional, organism-based
# [19] = tested on: Human immunodeficiency virus 1; experiment: Antiviral activity against wild-type HIV-1 IIIB infected in human MT4 cells assessed as virus-induced cytopathicity treated for 5 days by MTT assay; format: functional, organism-based; details: Human immunodeficiency virus 1, IIIB, MT4, 120 h
# [20] = Inhibition of Escherichia coli DNA polymerase I
smiles,measurement,setting,value
O=C(Nc1nc2n(n1)C(c1ccccc1)C=C(c1ccccc1)N2)c1ccc(O)c(O)c1 (stereo not drawn),IC50,[1],1.86 µM
same,IC50,[2],20.5 µM
COc1cc(OC)cc(OC(=O)c2ccc(C(F)(F)F)cc2Nc2cc(Cl)ccc2C)c1,IC50,[3],16.1 µM
same,CC50 at 24 h,[4],> 50 µM
same,EC50,[5],5 µM
same,IC50,[2],16.1 µM
COc1ccc2ccccc2c1/C=N/NC(=O)c1ccc(C(C)(C)C)cc1,IC50,[6],2 µM
same,IC50,[7],3 µM
Nc1nn(C(=O)c2ccc(Cl)cc2)c(N)c1C(=S)Nc1ccccc1,IC50,[8],7 µM
same,EC50,[9],25 µM
same,CC50,TZM,44 µM
same,IC50,[2],17 µM
CC1=CC(c2ccccc2)n2nc(NC(=O)CCCc3ccc(C)cc3)nc2N1 (stereo not drawn),IC50,[1],13.1 µM
same,IC50,[2],> 100 µM
COc1ccc2ccccc2c1/C=N/NC(=O)c1ccc(O)c(O)c1,IC50,[6],> 50 µM
same,IC50,[7],15 µM
Nc1ccc(S(=O)(=O)N2CCN(C(=O)c3cc(O)c(O)c(O)c3)CC2)cc1,IC50,[2],> 50 µM
O=C1Nc2ccccc2/C1=N/Nc1nc(-c2ccc(O)c(O)c2)cs1,IC50,[3],1.4 µM
O=C(Nc1sc2c(c1C(=O)Nc1ccccn1)CCCCC2)c1ccc(O)c(O)c1,IC50,[10],0.84 µM
COC(=O)c1c(C)cc(OC)c(=O)c(O)c1O,EC50,Hepatitis B virus [11],0.93 µM
NC(=O)c1c(N)sc2c1CCCCC2,IC50,[10],2 µM
Cc1cc(O)c(=O)c(O)c(O)c1C(=O)c1ccc(-c2ccccc2)cc1,EC50,Human alphaherpesvirus 1 [12],0.052 µM
same,EC50,Human alphaherpesvirus 2,0.05 µM
same,EC50,Human alphaherpesvirus 1 [13],0.052 µM
O=C1c2ccccc2C(=O)c2c1ccc(O)c2O [ATHRAQUINONES A],IC50,[10],> 100 µM
same,IC50,[3],79 µM
O=c1oc(-c2ccc(O)c(O)c2)nc2sc3ccccc3c12,IC50,[10],0.53 µM
O=C(Oc1ccc2c(c1OC(=O)c1ccccc1)C(=O)c1ccccc1C2=O)c1ccccc1,IC50,[3],12 µM
same,EC50,[14],> 100 µM
same,CC50 at 72 h,[15],~100 µM
Cn1c(-c2ccc(-c3ccccc3)cc2)cs/c1=N/N=C1\C(=O)Nc2ccc(Cl)cc21,IC50,[16],9.8 µM
same,IC50,[7],10 µM
COC(=O)c1c(C)cc(O)c(=O)c(O)c1Br,EC50,[17],2.2 µM
COc1c(/C=C/C(=O)c2ccc(-c3ccccc3)cc2)ccc2ccccc12,IC50,[3],4 µM
same,IC50,[7],6 µM
COC(=O)c1c(C)cc(OC)c(=O)c(O)c1OC,EC50,Hepatitis B virus [18],5.6 µM
same,IC50,[8],13.5 µM
COc1ccccc1C(=O)N1CCC(NC(=O)c2cc(O)c(O)c(O)c2)CC1,IC50,[8],13.1 µM
same,IC50,[2],39.9 µM
COc1cc(C)c(C(=O)c2ccc(-c3ccccc3)cc2)c(O)c(O)c1=O,EC50,Human alphaherpesvirus 1 [12],0.22 µM
COc1ccc(-c2cccc(C(N)=O)c2)cc1/C=N/Nc1nc(-c2ccc([N+](=O)[O-])cc2)cs1,IC50,[3],8 µM
same,IC50,[7],4.5 µM
COC(=O)c1c(C)cc(O)c(=O)c(O)c1O,EC50,Hepatitis B virus [18],6 µM
same,IC50,[8],1.5 µM
same,EC50,Human alphaherpesvirus 1 [12],0.19 µM
same,EC50,Human alphaherpesvirus 2,0.4 µM
same,EC50,Human alphaherpesvirus 1 [13],0.19 µM
N#Cc1ccc(-c2csc(NN=C3C(=O)Nc4ccccc43)n2)cc1,IC50,[16],9.5 µM
same,IC50,[7],1.3 µM
CC(C)(C)c1ccc(C(=O)N/N=C/c2c(O)ccc3ccccc23)cc1,EC50,[19],1.5 µM
same,IC50,[20],12.5 µM
same,IC50,[16],0.8 µM
same,IC50,[1],3.5 µM
